Results taken from patent US8912209B2, “Rock inhibitors” (Amakem NV, priority 2010, dated 2014).
Like-named read-outs stand apart in the source and are kept apart here.

What was measured:
[1] = Stability assay in human plasma; format: in vitro ADME; settings: 1 μM in human plasma, LC-MS/MS; read-out: t½ human plasma
Procedure: (§1) C.2.1. Stability Assay in Human and/or Rat Plasma
(§2) Compounds are incubated at a concentration of 1 μM in rat (mice or rabbit) or human plasma. Samples are taken at fixed time points and the remnant of compound is determined by LC-MS/MS after protein precipitation. Half life is expressed in minutes.

ROCKα/ROCKII = target: T1, ROCKα/ROCKII (Homo sapiens, UniProt O75116); test: ROCK inhibition, Method 2 fluorescence polarization (FP) assay, ROCK IMAP Kit; format: biochemical; settings: 10 μM ATP, read-out: IC50 Meth. 2
T1 construct: purchased Upstate Biotechnology 14-451
T1 sequence (O75116 whole entry): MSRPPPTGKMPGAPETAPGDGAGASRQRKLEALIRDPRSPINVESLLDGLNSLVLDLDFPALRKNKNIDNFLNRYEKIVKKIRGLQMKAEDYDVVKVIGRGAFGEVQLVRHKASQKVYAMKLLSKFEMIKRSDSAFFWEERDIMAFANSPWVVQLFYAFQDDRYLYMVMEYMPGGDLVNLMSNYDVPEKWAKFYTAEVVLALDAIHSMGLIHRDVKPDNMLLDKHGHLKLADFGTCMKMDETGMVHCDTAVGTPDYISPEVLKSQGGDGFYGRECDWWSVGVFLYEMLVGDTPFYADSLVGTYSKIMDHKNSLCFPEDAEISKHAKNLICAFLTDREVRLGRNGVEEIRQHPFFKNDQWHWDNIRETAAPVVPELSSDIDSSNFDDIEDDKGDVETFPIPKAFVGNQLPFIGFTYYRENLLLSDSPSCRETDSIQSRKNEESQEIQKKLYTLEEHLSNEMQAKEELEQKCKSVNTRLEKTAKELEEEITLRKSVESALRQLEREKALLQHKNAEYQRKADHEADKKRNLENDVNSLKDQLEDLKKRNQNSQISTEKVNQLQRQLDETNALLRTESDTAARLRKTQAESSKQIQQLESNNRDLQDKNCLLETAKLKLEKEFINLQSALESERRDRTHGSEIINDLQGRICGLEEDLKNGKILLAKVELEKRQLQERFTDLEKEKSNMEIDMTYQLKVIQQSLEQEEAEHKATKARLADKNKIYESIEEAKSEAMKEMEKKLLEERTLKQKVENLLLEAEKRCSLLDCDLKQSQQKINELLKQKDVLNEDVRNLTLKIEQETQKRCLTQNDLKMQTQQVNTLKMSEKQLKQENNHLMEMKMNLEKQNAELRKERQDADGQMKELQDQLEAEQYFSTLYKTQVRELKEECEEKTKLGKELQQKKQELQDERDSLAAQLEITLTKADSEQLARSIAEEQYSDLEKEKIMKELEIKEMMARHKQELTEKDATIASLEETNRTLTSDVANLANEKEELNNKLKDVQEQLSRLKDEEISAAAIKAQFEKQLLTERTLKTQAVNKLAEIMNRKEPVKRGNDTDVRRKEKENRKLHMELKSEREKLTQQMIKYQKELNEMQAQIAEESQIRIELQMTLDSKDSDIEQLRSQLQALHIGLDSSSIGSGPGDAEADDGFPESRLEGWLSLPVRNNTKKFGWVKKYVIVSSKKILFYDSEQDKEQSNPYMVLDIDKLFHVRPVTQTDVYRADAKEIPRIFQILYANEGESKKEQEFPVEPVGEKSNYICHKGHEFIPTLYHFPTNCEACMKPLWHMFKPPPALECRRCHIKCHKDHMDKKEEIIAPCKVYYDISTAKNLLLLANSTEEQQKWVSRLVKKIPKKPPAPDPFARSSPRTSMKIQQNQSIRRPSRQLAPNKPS

ROCK II = target: T2, ROCK II (Homo sapiens, UniProt O75116); test: ROCK II kinase inhibition, Method 1 Proqinase setup (33P radioisotopic protein kinase assay); format: biochemical; settings: 33P radioisotopic assay, 1 μM ATP, read-out: IC50 Meth. 1
T2 construct: purchased Proqinase
T2 sequence (O75116 whole entry): as above
Procedure: A ^33P radioisotopic protein kinase assay is used to determine the IC50 for inhibiting ROCK II. A final 50 μl reaction cocktail, containing 60 mM HEPES-NaOH (pH 7.5), 3 mM MgCl2, 3 mM MnCl2, 3 μM Na-orthovanadate, 1.2 mM DTT, 1 μM ATP, 50 μg/ml PEG20.000, 1% (v/v) DMSO, 1 μM ATP (approx. 3×10^5 cpm ^33P-γ-ATP), the substrate (Substrate: S6 peptide—2000 ng/well) and recombinant protein kinase (0.5 nM-2.5 ng/well) is mixed on a shaker and incubated at 30° C. for 80 minutes. The reaction is stopped by the addition of 50 μl of a 2% solution of H3PO4 and mixed on a shaker. After washing twice with 200 μl of a 0.9% solution of NaCl, the dry plate is counted.

[2] = Stability towards drug metabolizing enzymes in lung S9; format: in vitro ADME; settings: human, lung S9 from smokers with NADPH, UDPGA, PAPS and GSH, read-out: t½ human lung S9
Procedure: i) C.2.2. Stability Towards Drug Metabolizing Enzymes in Lung S9
A 1 μM solution of the ROCK inhibitors is incubated with a reaction mixture containing lung S9 (from smokers) as well as the cofactors NADPH, UDPGA, PAPS and GSH. Samples are collected at 0, 15, 30 and 60 minutes post incubation. Negative control samples incubated with ROCK inhibitors and S9 fraction in the absence of cofactors are run in parallel. By using LC-MS/MS analysis, the percent of ROCK compounds remaining at each time point, the metabolic half-life of the ROCK compounds (expressed in minutes) and the metabolic half-life of the control compounds are determined.

[3] = Stability assay in rat plasma; format: in vitro ADME; settings: 1 μM in rat plasma, LC-MS/MS; read-out: t½ rat plasma
Procedure: as §1, §2

[4] = Stability assay in rabbit aqueous humor; format: in vitro ADME; settings: 1 μM in rabbit aqueous humor, LC-MS/MS; read-out: t½ rabbits AH
Procedure: i) C.2.3. Stability Assay in Rabbit Aqueous Humor
Compounds are incubated at a concentration of 1 μM in rabbit aqueous humor (AH). Samples are taken at fixed time points and the remnant of compound is determined by LC-MS/MS after protein precipitation.

LPS-stimulated PBMC = test: Cellular assay using LPS-stimulated PBMC, TNF release (ELISA), in the absence and presence of plasma; format: cell-based
From the text: C.1.2. Activity Against ROCK in a Cellular Assay Using LPS-Stimulated PBMC in the Absence and Presence of Plasma
To ensure the stimulation of PBMC by LPS, the medium is enriched with LPS-binding protein (LBP) that will facilitate the delivery of LPS to the CD14 receptor and enhance the LPS-induced immune response. Cytokines secreted by activated PBMC include TNF, which is detected by means of a colorimetric ELISA. In the presence of an active compound, the release of TNF is inhibited in a concentration-dependent manner. Subsequently a control assay using the same set up in the presence of plasma is included.

Guinea pig trachea rings = test: Smooth muscle relaxing activity in organ baths of guinea pig trachea (carbachol); settings: Cavia porcellus; guinea pig trachea rings contracted with carbachol
Procedure: C.1.3. Smooth Muscle Relaxing Activity of Generated Soft ROCK Inhibitors In Vitro Using Organ Baths of Guinea Pig Trachea
Guinea pig trachea rings are prepared and incubated with a fixed concentration of the bronchoconstrictive agent carbachol. Then, increasing concentrations of the soft ROCK inhibitors are added and the contractive properties of the trachea measured for each of the compound concentrations. The study set-up allows the determination of an IC50, represented by the concentration of compound that induces a force equal to 50% of that observed for the vehicle-treated trachea.
In addition retention on the target is assessed using the above described organ baths of guinea pig trachea. In brief, upon induction of maximal relaxation with the ROCK inhibitors, trachea rings are thoroughly washed. Then, carbachol is added again and contractive properties are measured to determine whether the inhibitory activity of the ROCK inhibitors is prolonged upon the washout. A prolonged inhibitory activity after the washout is highly indicative for a prolonged retention of the compound at the lungs in vivo.

| Structure (SMILES) | IC50 (ROCKα/ROCKII) [µM] | IC50 (ROCK II) [µM] | other results |
| --- | --- | --- | --- |
| CC(N)c1ccc(C(=O)Nc2ccncc2F)cc1-c1cccc(C(=O)OCC2CCCCO2)c1 (stereo not shown) [Compound 47, 2′-(1-Amino-ethyl)-5′-(3-fluoro-pyridin-4-ylcarbamoyl)-biphenyl-3-carboxylic acid tetrahydro-pyran-2-ylmethyl ester] | < 0.1 | 0.1 to 1 | half-life at 1 μM [1]: 9.8 min; half-life at 1 μM [2]: > 60 min; half-life at 1 μM [3]: 4.5 min |
| CCCOC(=O)c1cc(-c2cc(C(=O)Nc3ccncc3)ccc2C(C)N)c[nH]1 (stereo not shown) [Compound 169, 4-[2-(1-Amino-ethyl)-5-(pyridin-4-ylcarbamoyl)-phenyl]-1H-pyrrole-2-carboxylic acid propyl ester] |  | < 0.1 | half-life at 1 μM [4]: > 60 min |
| CC(N)c1ccc(C(=O)Nc2ccncc2)cc1-c1cccc(C(=O)OCCO)c1 (stereo not shown) [Compound 65, 2′-(1-Amino-ethyl)-5′-(pyridin-4-ylcarbamoyl)-biphenyl-3-carboxylic acid 2-hydroxy-ethyl ester] | < 0.1 | < 0.1 | half-life at 1 μM [2]: > 60 min |
| CC(N)c1ccc(C(=O)Nc2ccncc2)cc1-c1cccc(OCCCSC2CCOC2=O)c1 (stereo not shown) [Compound 131, 6-(1-Amino-ethyl)-3′-[3-(2-oxo-tetrahydro-furan-3-ylsulfanyl)-propoxy]-biphenyl-3-carboxylylic acid pyridin-4-ylamide] | 0.1 to 1 | 0.1 to 1 |  |
| CC(N)c1ccc(C(=O)Nc2ccncc2)cc1-c1cccc(C(=O)OCCF)c1 (stereo not shown) [Compound 60, 2′-(1-Amino-ethyl)-5′-(pyridin-4-ylcarbamoyl)-biphenyl-3-carboxylic acid 2-fluoro-ethyl ester] | < 0.1 | 0.1 to 1 |  |
| CCCOC(=O)c1cc2c(-c3cc(C(=O)Nc4ccncc4)ccc3C(C)N)cccc2[nH]1 (stereo not shown) [Compound 172, 4-[2-(1-Amino-ethyl)-5-(pyridin-4-ylcarbamoyl)-phenyl]-1H-indole-2-carboxylic acid propyl ester] | 0.1 to 1 | 0.1 to 1 |  |
| CCCOC(=O)c1cccc(-c2cc(C(=O)Nc3ccncc3F)ccc2C(C)N)c1 (stereo not shown) [Compound 12, 2′-(1-Amino-ethyl)-5′-(3-fluoro-pyridin-4-ylcarbamoyl)-biphenyl-3-carboxylic acid propyl ester] | < 0.1 | 0.1 to 1 |  |
| CCCOC(=O)CCc1cccc(-c2cc(C(=O)Nc3ccncc3)ccc2C(C)N)c1 (stereo not shown) [Compound 166, 3-[2′-(1-Amino-ethyl)-5′-(pyridin-4-ylcarbamoyl)-biphenyl-3-yl]-propionic acid propyl ester] | 0.1 to 1 | 0.1 to 1 |  |
| CCOC(=O)c1cccc(-c2cc(C(=O)Nc3ccncc3)ccc2C(C)N)c1 (stereo not shown) [Compound 8, 2′-(1-Amino-ethyl)-5′-(pyridin-4-ylcarbamoyl)-biphenyl-3-carboxylic acid ethyl ester] | < 0.1 | < 0.1 |  |
| CC(N)c1ccc(C(=O)Nc2ccncc2F)cc1-c1cccc(C(=O)OCC2CCCO2)c1 (stereo not shown) [Compound 46, 2′-(1-Amino-ethyl)-5′-(3-fluoro-pyridin-4-ylcarbamoyl)-biphenyl-3-carboxylic acid tetrahydro-furan-2-ylmethyl ester] | < 0.1 | 0.1 to 1 | half-life at 1 μM [1]: 1.9 min; IC50 (LPS-stimulated PBMC; in the presence of plasma, read-out: IC50 in the presence of plasma): > 10 µM; IC50 (LPS-stimulated PBMC; without plasma, read-out: IC50 (assay without plasma)): 0.12 µM; half-life at 1 μM [2]: 53 min; half-life at 1 μM [3]: 5.8 min; half-life at 1 μM [4]: > 60 min; IC50 (Guinea pig trachea rings): 0.5 µM |
| COC(=O)COc1cccc(-c2cc(C(=O)Nc3ccncc3)ccc2CN)c1 [Compound 137, [2′-Aminomethyl-5′-(pyridin-4-ylcarbamoyl)-biphenyl-3-yloxy]-acetic acid methyl ester] |  | 0.1 to 1 | half-life at 1 μM [1]: 1.9 min; half-life at 1 μM [3]: < 1 min |
| CC(C)COC(=O)c1cccc(-c2cc(C(=O)Nc3ccncc3F)ccc2C(C)N)c1 (stereo not shown) [Compound 28, 2′-(1-Amino-ethyl)-5′-(3-fluoro-pyridin-4-ylcarbamoyl)-biphenyl-3-carboxylic acid isobutyl ester] | 0.1 to 1 | 0.1 to 1 |  |
| CC(N)c1ccc(C(=O)Nc2ccncc2)cc1-c1cccc(OC2CCOC2=O)c1 (stereo not shown) [Compound 134, 6-(1-Amino-ethyl)-3′-(2-oxo-tetrahydro-furan-3-yloxy)-biphenyl-3-carboxylic acid pyridin-4-ylamide] | < 0.1 | 0.1 to 1 |  |
| CC(N)c1ccc(C(=O)Nc2ccncc2)cc1-c1cccc(C(=O)OCc2ccoc2)c1 (stereo not shown) [Compound 90, 2′-(1-Amino-ethyl)-5′-(pyridin-4-ylcarbamoyl)-biphenyl-3-carboxylic acid furan-3-ylmethyl ester] | 0.1 to 1 | < 0.1 |  |
| CCSC(=O)c1cccc(-c2cc(C(=O)Nc3ccncc3)ccc2CN)c1 [Compound 97, 2′-Aminomethyl-5′-(pyridin-4-ylcarbamoyl)-biphenyl-3-carbothioic acid S-ethyl ester] |  | < 0.1 | half-life at 1 μM [1]: 44 min; half-life at 1 μM [3]: 38 min |
